Reference: article PMC10981686, “Structural bases of inhibitory mechanism of CaV1.2 channel inhibitors” (Nature Communications, 2024)
“And” between values parts separate entries of the source, which are not always exact repeats. Equal entries are not always repeated. Where two headings read alike, the source gives them in different places.

How the values were obtained:
[1] = test system: CaV1.2 with substitutions at positions T1056 and Q1060; set-up: method as in PMID 9006896; details: result in words; cited from earlier work
[2] = target: T1, CaV1.2^WT (human CaV1.2 with α2δ1 and β2) (Homo sapiens, UniProt Q13936); assay: whole-cell patch clamp inhibition curves in HEK293T cells, wild-type CaV1.2; format: cell-based; details: for logIC50 (best-fit value): X values in μM
T1 construct: superfolder GFP (sfGFP) (C); Twin-Strep (C); expressed in transfected cells; host or cells: HEK293T
Method: (§1) Whole-cell voltage-clamp recordings were carried out using human embryonic kidney 293 T (HEK293T) cells, which were cultured in Dulbecco’s Modified Eagle Medium (DMEM, Gibco) supplemented with 10% (v/v) fetal bovine serum (FBS, PAN-Biotech) at 37 °C supplemented with 5% CO2. Three distinct recombinant baculoviruses encoding CaV1.2, α2δ1, and β2 were used to coinfect HEK293T cells once they reached a confluence of 40–60%. After 8−12 h, transfected cells were re-plated on 8 × 8 mm coverslips, and sodium butyrate was added to the culture at a final concentration of 0.5−2.5 mM to improve protein expression. Whole-cell recordings of activation curves were performed from isolated GFP-positive HEK293T cells at 20−28 h after transfection with recombinant baculoviruses. […] Pipettes were pulled to obtain final resistances of 2−6 MΩ with a Sutter P-97 puller and heat-polished before employment. […] The series resistance was not compensated in these experiments. […] Signals were digitized at 10 kHz and low-pass filtered at 2 kHz. Data were analyzed with Clampfit 10.7.
(§2) To measure the inhibition curves, 2 μg endotoxin-free plasmids of wild-type (WT) or mutants generated by PCR expressing CaV1.2, α2δ1, and β2 were transiently transfected using 1.2 μg Lipofectamine 2000 Reagent (Thermo Fisher Scientific). For curves determining, re-plated cells were held at −100 mV, and then depolarized at +10 mV to elicit inward currents. To ensure stable currents during measurement, a series of traces were pre-recorded at a specific time interval without drug application for each construct. […] Perfusions applied using a gravity-driven system. […] Data analyses were performed using Origin 2022 (Origin Lab Corporation), GraphPad Prism 9 (GraphPad Software, Inc.) and Adobe illustrator 2018.

CaV1.2^T1056Y = target: T2, CaV1.2^T1056Y (Homo sapiens, UniProt Q13936, T1056Y); assay: whole-cell patch clamp inhibition curves in HEK293T cells, T1056Y mutant; format: cell-based
T2 construct: superfolder GFP (sfGFP) (C); Twin-Strep (C); expressed in transfected cells; host or cells: HEK293T
Method: as §1, §2

CaV1.2^Q1060M = target: T3, CaV1.2^Q1060M (Homo sapiens, UniProt Q13936, Q1060M); assay: whole-cell patch clamp inhibition curves in HEK293T cells, Q1060M mutant; format: cell-based
T3 construct: superfolder GFP (sfGFP) (C); Twin-Strep (C); expressed in transfected cells; host or cells: HEK293T
T3 sequence (Q13936 whole entry Q1060M): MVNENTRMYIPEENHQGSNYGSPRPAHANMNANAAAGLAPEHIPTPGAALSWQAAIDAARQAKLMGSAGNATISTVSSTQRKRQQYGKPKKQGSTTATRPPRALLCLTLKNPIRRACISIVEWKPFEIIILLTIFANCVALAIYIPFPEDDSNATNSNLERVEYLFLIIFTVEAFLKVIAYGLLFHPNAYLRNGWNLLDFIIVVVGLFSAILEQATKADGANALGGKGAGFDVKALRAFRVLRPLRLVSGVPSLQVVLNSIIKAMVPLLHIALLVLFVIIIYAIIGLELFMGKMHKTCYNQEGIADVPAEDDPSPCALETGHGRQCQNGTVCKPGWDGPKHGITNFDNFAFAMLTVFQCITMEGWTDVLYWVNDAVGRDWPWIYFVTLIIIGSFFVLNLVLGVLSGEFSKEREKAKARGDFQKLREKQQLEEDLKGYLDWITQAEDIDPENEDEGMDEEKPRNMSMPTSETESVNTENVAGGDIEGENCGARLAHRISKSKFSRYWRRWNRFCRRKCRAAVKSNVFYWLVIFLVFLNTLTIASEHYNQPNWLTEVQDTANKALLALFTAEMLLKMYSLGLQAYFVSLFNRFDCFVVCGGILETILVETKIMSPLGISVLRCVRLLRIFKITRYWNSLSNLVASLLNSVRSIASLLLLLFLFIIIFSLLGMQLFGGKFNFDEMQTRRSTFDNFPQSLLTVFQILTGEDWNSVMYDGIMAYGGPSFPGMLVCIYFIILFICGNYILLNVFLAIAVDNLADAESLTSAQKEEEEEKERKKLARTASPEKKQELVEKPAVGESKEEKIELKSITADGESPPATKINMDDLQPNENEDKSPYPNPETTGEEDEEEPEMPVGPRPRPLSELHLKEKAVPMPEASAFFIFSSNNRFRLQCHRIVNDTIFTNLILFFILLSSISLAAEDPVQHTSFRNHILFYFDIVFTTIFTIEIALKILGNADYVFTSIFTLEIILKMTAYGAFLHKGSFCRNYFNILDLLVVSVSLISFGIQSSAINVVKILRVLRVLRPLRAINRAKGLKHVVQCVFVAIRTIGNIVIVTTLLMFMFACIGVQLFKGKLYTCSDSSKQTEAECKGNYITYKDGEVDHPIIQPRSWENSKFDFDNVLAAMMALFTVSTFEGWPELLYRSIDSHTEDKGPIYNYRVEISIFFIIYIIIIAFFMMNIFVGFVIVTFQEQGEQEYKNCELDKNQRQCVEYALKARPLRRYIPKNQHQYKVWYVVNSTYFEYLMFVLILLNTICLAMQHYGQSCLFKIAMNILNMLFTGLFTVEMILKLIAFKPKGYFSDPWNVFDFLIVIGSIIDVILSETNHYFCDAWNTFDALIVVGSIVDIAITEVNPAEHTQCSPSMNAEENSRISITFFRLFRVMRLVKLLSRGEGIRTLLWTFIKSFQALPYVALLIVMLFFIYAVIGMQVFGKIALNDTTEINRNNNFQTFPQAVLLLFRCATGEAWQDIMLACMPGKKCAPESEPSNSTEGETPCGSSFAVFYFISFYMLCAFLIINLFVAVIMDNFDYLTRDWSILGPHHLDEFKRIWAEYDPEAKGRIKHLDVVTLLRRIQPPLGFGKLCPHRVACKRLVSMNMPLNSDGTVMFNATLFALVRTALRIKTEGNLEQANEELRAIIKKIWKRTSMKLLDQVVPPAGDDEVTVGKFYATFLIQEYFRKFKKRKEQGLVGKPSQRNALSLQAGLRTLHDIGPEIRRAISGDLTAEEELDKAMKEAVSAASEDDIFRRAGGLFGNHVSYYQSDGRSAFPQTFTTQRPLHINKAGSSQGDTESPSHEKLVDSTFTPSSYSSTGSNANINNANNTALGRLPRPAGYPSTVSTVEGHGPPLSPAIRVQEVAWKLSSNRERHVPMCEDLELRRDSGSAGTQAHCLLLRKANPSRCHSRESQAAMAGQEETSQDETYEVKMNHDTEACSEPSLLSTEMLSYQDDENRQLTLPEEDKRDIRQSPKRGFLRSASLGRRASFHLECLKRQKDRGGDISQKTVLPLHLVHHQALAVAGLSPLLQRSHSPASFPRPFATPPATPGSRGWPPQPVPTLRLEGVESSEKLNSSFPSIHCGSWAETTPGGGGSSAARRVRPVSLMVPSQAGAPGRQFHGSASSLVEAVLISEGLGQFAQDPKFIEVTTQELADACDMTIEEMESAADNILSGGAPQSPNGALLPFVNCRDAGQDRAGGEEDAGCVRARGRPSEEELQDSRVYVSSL
T3 sequence (P54289 25-946 partner limits assumed): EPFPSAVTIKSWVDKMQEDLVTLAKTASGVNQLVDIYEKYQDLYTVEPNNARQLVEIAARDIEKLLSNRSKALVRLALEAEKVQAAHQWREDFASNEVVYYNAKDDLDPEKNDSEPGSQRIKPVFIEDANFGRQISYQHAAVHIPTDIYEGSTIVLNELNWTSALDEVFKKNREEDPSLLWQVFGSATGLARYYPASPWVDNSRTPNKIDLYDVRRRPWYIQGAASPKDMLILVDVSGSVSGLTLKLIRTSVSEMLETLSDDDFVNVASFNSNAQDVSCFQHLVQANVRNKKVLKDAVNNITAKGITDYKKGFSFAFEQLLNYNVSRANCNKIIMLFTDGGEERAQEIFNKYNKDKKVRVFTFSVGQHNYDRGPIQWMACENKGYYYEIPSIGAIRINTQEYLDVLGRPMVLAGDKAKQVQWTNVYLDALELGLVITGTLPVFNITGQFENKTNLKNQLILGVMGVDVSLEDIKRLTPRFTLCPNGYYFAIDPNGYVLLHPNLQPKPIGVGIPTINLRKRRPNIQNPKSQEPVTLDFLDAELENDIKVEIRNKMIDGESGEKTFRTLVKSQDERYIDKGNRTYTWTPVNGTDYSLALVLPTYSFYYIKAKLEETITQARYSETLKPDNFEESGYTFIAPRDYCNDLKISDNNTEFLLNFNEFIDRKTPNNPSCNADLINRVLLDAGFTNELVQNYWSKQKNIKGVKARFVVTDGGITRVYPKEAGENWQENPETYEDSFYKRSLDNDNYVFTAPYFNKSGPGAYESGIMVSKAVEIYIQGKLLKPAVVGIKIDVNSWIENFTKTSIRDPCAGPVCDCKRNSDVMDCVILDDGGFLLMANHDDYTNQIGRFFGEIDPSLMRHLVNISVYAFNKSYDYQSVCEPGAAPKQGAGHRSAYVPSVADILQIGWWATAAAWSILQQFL
T3 sequence (P54289 947-1103 partner limits assumed): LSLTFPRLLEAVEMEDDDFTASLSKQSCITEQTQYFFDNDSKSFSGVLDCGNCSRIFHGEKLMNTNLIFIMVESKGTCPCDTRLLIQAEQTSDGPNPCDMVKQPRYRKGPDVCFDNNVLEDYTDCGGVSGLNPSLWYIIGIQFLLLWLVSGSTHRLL
T3 sequence (Q08289 1-606 isoform Q08289-3 partner): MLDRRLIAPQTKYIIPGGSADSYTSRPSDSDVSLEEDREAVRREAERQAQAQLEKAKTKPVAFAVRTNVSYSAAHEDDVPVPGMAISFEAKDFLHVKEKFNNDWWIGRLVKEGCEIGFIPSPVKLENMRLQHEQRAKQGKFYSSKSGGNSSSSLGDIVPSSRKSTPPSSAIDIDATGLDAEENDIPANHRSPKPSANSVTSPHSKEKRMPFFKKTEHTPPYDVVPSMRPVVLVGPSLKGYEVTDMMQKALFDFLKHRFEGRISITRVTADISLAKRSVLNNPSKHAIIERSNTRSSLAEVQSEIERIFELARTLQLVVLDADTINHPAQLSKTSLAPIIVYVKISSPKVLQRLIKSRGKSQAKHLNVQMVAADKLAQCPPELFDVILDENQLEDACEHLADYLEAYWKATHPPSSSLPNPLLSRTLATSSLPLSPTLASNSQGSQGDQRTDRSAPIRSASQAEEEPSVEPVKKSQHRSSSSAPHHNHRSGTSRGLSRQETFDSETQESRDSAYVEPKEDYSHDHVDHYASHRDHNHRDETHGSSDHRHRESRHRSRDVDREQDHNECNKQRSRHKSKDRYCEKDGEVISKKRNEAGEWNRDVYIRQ
Method: as §1, §2

CaV1.2^Q1060F = target: T4, CaV1.2^Q1060F (Homo sapiens, UniProt Q13936, Q1060F); assay: whole-cell patch clamp inhibition curves in HEK293T cells, Q1060F mutant; format: cell-based
T4 construct: superfolder GFP (sfGFP) (C); Twin-Strep (C); expressed in transfected cells; host or cells: HEK293T
Method: as §1, §2

N-type CaV channels = details: cited from earlier work
T-type CaV channels = details: cited from earlier work
[3] = test system: L-type and T-type channels; set-up: method as in earlier work; details: result in words, 82 and references of Supplementary Table 2, cited from earlier work
CaV1.2^N741W = target: T5, CaV1.2^N741W (Homo sapiens, UniProt Q13936, N741W); assay: whole-cell patch clamp inhibition curves in HEK293T cells, N741W mutant; format: cell-based
T5 construct: superfolder GFP (sfGFP) (C); Twin-Strep (C); expressed in transfected cells; host or cells: HEK293T
T5 sequence (Q13936 whole entry N741W): as the sequence (Q13936 whole entry Q1060M) above, with N741W, M1060Q counted along it
T5 sequence (P54289 25-946 partner limits assumed): as the sequence (P54289 25-946 partner limits assumed) above
T5 sequence (P54289 947-1103 partner limits assumed): as the sequence (P54289 947-1103 partner limits assumed) above
T5 sequence (Q08289 1-606 isoform Q08289-3 partner): as the sequence (Q08289 1-606 isoform Q08289-3 partner) above
Method: as §1, §2

CaV1.2^N1179W = target: T6, CaV1.2^N1179W (Homo sapiens, UniProt Q13936, N1179W); assay: whole-cell patch clamp inhibition curves in HEK293T cells, N1179W mutant; format: cell-based
T6 construct: superfolder GFP (sfGFP) (C); Twin-Strep (C); expressed in transfected cells; host or cells: HEK293T
Method: as §1, §2

## CC1=C(C(=O)OC(C)C)[C@@H](c2cccc3nonc23)C([N+](=O)[O-])=C(C)N1 [R202-791]
[1]
  effect of substitutions at T1056 and Q1060 on sensitivity of CaV1.2 to the drug: almost abolished the sensitivity

## COC(=O)C1=C(C)NC(C)=C(C(=O)OC2CCCN(Cc3ccccc3)C2)C1c1cccc([N+](=O)[O-])c1 (stereo not drawn) [benidipine]
[2]; HEK-293T, benidipine 0.01 μM, WT, single experiments, Supplementary Fig. 7c source data, read-out: normalized current (I/Imax)
  remaining activity at 0.01 µM: 91%
[2]; HEK-293T, benidipine 1 μM, WT, single experiments, Supplementary Fig. 7c source data, read-out: normalized current (I/Imax)
  remaining activity at 1 µM: 27.4%
[2]; benidipine 100 μM
  CaV1.2 current reduction: 90%
[2]; benidipine, WT
  HillSlope (best-fit value): -0.5499
  logIC50 (best-fit value): -0.6638
CaV1.2^T1056Y; HEK-293T, benidipine 0.01 μM, T1056Y, single experiments, Supplementary Fig. 7c source data, read-out: normalized current (I/Imax)
  remaining activity at 0.01 µM: 99.8%
CaV1.2^T1056Y; HEK-293T, benidipine 0.1 μM, T1056Y, single experiments, Supplementary Fig. 7c source data, read-out: normalized current (I/Imax)
  remaining activity at 0.1 µM: 91.4%
CaV1.2^T1056Y; HEK-293T, benidipine 1 μM, T1056Y, single experiments, Supplementary Fig. 7c source data, read-out: normalized current (I/Imax)
  remaining activity at 1 µM: 85.3%
CaV1.2^T1056Y; HEK-293T, benidipine 10 μM, T1056Y, single experiments, Supplementary Fig. 7c source data, read-out: normalized current (I/Imax)
  remaining activity at 10 µM: 67.2%
CaV1.2^T1056Y; benidipine, T1056Y
  HillSlope (best-fit value): -0.3204
CaV1.2^T1056Y; benidipine, T1056Y, X values in μM
  logIC50 (best-fit value): 2.427
CaV1.2^T1056Y; held at -100 mV, depolarized at +10 mV every 1 min, n = 4
  IC50: > 100 µM
CaV1.2^Q1060M; HEK-293T, benidipine 0.01 μM, Q1060M, single experiments, Supplementary Fig. 7c source data, read-out: normalized current (I/Imax)
  remaining activity at 0.01 µM: 97%
CaV1.2^Q1060M; HEK-293T, benidipine 0.1 μM, Q1060M, single experiments, Supplementary Fig. 7c source data, read-out: normalized current (I/Imax)
  remaining activity at 0.1 µM: 88.7%
CaV1.2^Q1060M; HEK-293T, benidipine 1 μM, Q1060M, single experiments, Supplementary Fig. 7c source data, read-out: normalized current (I/Imax)
  remaining activity at 1 µM: 73.2%
CaV1.2^Q1060M; HEK-293T, benidipine 10 μM, Q1060M, single experiments, Supplementary Fig. 7c source data, read-out: normalized current (I/Imax)
  remaining activity at 10 µM: 46.7%
CaV1.2^Q1060M; HEK-293T, benidipine 100 μM, Q1060M, single experiments, Supplementary Fig. 7c source data, read-out: normalized current (I/Imax)
  remaining activity at 100 µM: 20.1%
CaV1.2^Q1060M; IC50 of benidipine on CaV1.2^Q1060M, held at -100 mV, depolarized at +10 mV every 1 min, n = 4
  IC50: 7.5 µM
CaV1.2^Q1060M; benidipine, Q1060M
  HillSlope (best-fit value): -0.4107
CaV1.2^Q1060M; benidipine, Q1060M, X values in μM
  logIC50 (best-fit value): 0.8728
CaV1.2^Q1060M; benidipine, Q1060M, variable slope fit, X values in μM per sheet Supplementary Figure 7c, read-out: IC50 (best-fit value)
  IC50: 7.46 µM
CaV1.2^Q1060F; HEK-293T, benidipine 0.01 μM, Q1060F, single experiments, Supplementary Fig. 7c source data, read-out: normalized current (I/Imax)
  remaining activity at 0.01 µM: 93.9%
CaV1.2^Q1060F; HEK-293T, benidipine 0.1 μM, Q1060F, single experiments, Supplementary Fig. 7c source data, read-out: normalized current (I/Imax)
  remaining activity at 0.1 µM: 88.2%
CaV1.2^Q1060F; HEK-293T, benidipine 1 μM, Q1060F, single experiments, Supplementary Fig. 7c source data, read-out: normalized current (I/Imax)
  remaining activity at 1 µM: 81.9%
CaV1.2^Q1060F; IC50 of benidipine on CaV1.2^Q1060F, held at -100 mV, depolarized at +10 mV every 1 min, n = 4
  IC50: 11.7 µM
CaV1.2^Q1060F; benidipine, Q1060F
  HillSlope (best-fit value): -0.3921
CaV1.2^Q1060F; benidipine, Q1060F, X values in μM
  logIC50 (best-fit value): 1.07
CaV1.2^Q1060F; benidipine, Q1060F, variable slope fit, X values in μM per sheet Supplementary Figure 7c, read-out: IC50 (best-fit value)
  IC50: 11.7 µM
N-type CaV channels
  IC50: ~35 µM
T-type CaV channels
  IC50: 11 µM and ~11 µM
[3]
  selectivity class for L-type and T-type channels: L/T-type selective
[3]; listed as Benidipine
  selectivity class for L-type and T-type channels: non-selective

## COCCOC(=O)C1=C(C)NC(C)=C(C(=O)OC/C=C/c2ccccc2)C1c1cccc([N+](=O)[O-])c1 (stereo not drawn) [cilnidipine, Cilnidipine]
T-type CaV channels; result in words
  inhibition of T-type channels: cannot inhibit T-type channels
[3]
  selectivity class for L-type and T-type channels: L-type selective

## CCOC(=O)C1=C(C)NC(C)=C(C(=O)OC)C1c1cccc(Cl)c1Cl (stereo not drawn) [felodipine, Felodipine]
[3]
  selectivity class for L-type and T-type channels: L-type selective

## COC(=O)C1=C(C)NC(C)=C(C(=O)OCCN2CCN(C(c3ccccc3)c3ccccc3)CC2)C1c1cccc([N+](=O)[O-])c1 (stereo not drawn) [manidipine, Manidipine]
[3]
  selectivity class for L-type and T-type channels: L/T-type selective
[3]; listed as Manidipine
  selectivity class for L-type and T-type channels: non-selective

## COC(=O)C1=C(C)NC(C)=C(C(=O)OC)C1c1ccccc1[N+](=O)[O-] [nifedipine]
N-type CaV channels; result in words
  sensitivity of N-type CaV channels: no sensitivity
T-type CaV channels; result in words
  sensitivity of T-type CaV channels: no sensitivity
[3]
  selectivity class for L-type and T-type channels: L-type selective

## COCCOC(=O)C1=C(C)NC(C)=C(C(=O)OC(C)C)C1c1cccc([N+](=O)[O-])c1 (stereo not drawn) [nimodipine, Nimodipine]
T-type CaV channels; CaV3.1, CaV3.2, CaV3.3
  preference among T-type channels: preference for inhibiting CaV3.2 and CaV3.3 over CaV3.1
[3]
  selectivity class for L-type and T-type channels: non-selective

## CCOC(=O)C1=C(C)NC(C)=C(C(=O)OC)C1c1cccc([N+](=O)[O-])c1 (stereo not drawn) [nitrendipine, Nitrendipine]
[3]
  selectivity class for L-type and T-type channels: L-type selective

## COc1ccc2cc1Oc1ccc(cc1)C[C@H]1c3cc(c(OC)cc3CCN1C)Oc1c(OC)c(OC)cc3c1[C@H](C2)N(C)CC3 [tetrandrine]
[2]; HEK-293T, tetrandrine 0.001 μM, WT, single experiments, Fig. 3f source data, read-out: normalized current (I/Imax)
  remaining activity at 0.001 µM: 84.9%
[2]; IC50 of tetrandrine on CaV1.2^WT, held at -100 mV, depolarized at +10 mV every 20 s, n = 10
  IC50: ~0.0142 µM and 0.0142 µM
[2]; tetrandrine 10 μM
  CaV1.2 current reduction: 90%
[2]; tetrandrine, WT
  HillSlope (best-fit value): -0.4914
  logIC50 (best-fit value): -1.849
CaV1.2^N741W; HEK-293T, tetrandrine 0.001 μM, N741W, single experiments, Fig. 3f source data, read-out: normalized current (I/Imax)
  remaining activity at 0.001 µM: 90.1%
CaV1.2^N741W; HEK-293T, tetrandrine 0.1 μM, N741W, single experiments, Fig. 3f source data, read-out: normalized current (I/Imax)
  remaining activity at 0.1 µM: 49.4%
CaV1.2^N741W; HEK-293T, tetrandrine 10 μM, N741W, single experiments, Fig. 3f source data, read-out: normalized current (I/Imax)
  remaining activity at 10 µM: 22.8%
CaV1.2^N741W; IC50 of tetrandrine on CaV1.2^N741W, held at -100 mV, depolarized at +10 mV every 20 s, n = 10
  IC50: 0.0713 µM
CaV1.2^N741W; tetrandrine, N741W
  HillSlope (best-fit value): -0.3074
CaV1.2^N741W; tetrandrine, N741W, X values in μM
  logIC50 (best-fit value): -1.147
CaV1.2^N741W; tetrandrine, N741W, variable slope fit, bottom 0, top 1, X values in μM per sheet Figure 3f, read-out: IC50 (best-fit value)
  IC50: 0.0712 µM
CaV1.2^N1179W; HEK-293T, tetrandrine 0.001 μM, N1179W, single experiments, Fig. 3f source data, read-out: normalized current (I/Imax)
  remaining activity at 0.001 µM: 86.3%
CaV1.2^N1179W; held at -100 mV, depolarized at +10 mV every 20 s, n = 10
  IC50: 0.0418 µM
CaV1.2^N1179W; tetrandrine, N1179W
  HillSlope (best-fit value): -0.3696
CaV1.2^N1179W; tetrandrine, N1179W, X values in μM
  logIC50 (best-fit value): -1.379
